Test results reported in US11180510B2, “Xanthine derivatives and uses thereof as inhibitors of bromodomains of BET proteins” (Centre national de la recherche scientifique, priority 2017, dated 2021).
Several values for one entry are separate records, joined by “and”; a condition that tells them apart may be missing. Equal entries are not always repeated. Where two headings read alike, the source gives them in different places.

Legend:
Brd3(BD1) = Brd3(BD1) (Homo sapiens, UniProt Q15059); assay: HTRF BET selectivity profile, Brd3(BD1); assay type: binding; design: GST tagged bromodomain proteins were purchased from BPS Bioscience; purchased BPS Bioscience; settings: for Ratio 3-1 vs 3-2: selectivity Brd3(BD1) vs Brd3(BD2), HTRF IC50
Protocol: (§1) HTRF assays were performed in white 384 Well Small Volume™ HiBase Polystyrene Microplates (Greiner) with a total working volume of 20 μL. Compounds were dispensed, with 100 nL per well (0.5% final DMSO), from a concentration stock of 10 mM in 100% DMSO and with serial DMSO dilutions, using an Echo® 550 robot from the Access Labcyte platform (Labcyte) and based on the transfer of liquid by acoustic wave. Then, 19.5 μL of buffer is added, using a Multidrop Combi (Thermo Fisher Scientific). […] All HTRF reagents (donor and acceptor) were purchased from CisBio Bioassays and reconstituted according to the supplier protocols. The peptide was purchased from Genic Bio Synthetic. The BRD4(1) protein was produced and purified in the laboratory.
(§2) Percentage of inhibition was calculated using the following equation: % inhibition=[(compound signal)−(min signal)]/[(max signal)−(min signal)]*100, where ‘max signal’ is the signal ratio with the compound vehicle alone (DMSO) and ‘min signal’ the signal ratio without peptide.
(§3) Selectivity profiles of bromodomain inhibitors were performed as described in HTRF screen section. […] HTRF detection reagents (EPIgeneous™ Binding Domain kits) were purchased from Cisbio Bioassays and used according to supplier's protocol. GST tagged bromodomain proteins were purchased from BPS Bioscience and histone peptide from Genic Bio Synthetic.

BRD4(BD1) [1] = biological target: T1, BRD4(BD1) (Homo sapiens, UniProt O60885); assay: Isothermal Titration Calorimetry; assay type: binding; settings: ITC; read-out: Binding affinity (Kd) to BRD4(1) by Isothermal Titration Calorimetry
Protocol: FIG. 1. Isothermal Titration Calorimetry (ITC) of 43c. Thermogram (top) and non-linear least squares fit model of the integrated data (bottom) at 15° C. of Brd4 (BD1) […] as a function of the molar ratio of ligand to the protein.
ITC was used to evaluate the thermodynamics parameters of the binding between BRD4 (BD1) and the selected compounds. Titrations were carried out on a MicroCal ITC200 microcalorimeter (GE Healthcare, Piscataway, N.J.). Each experiment was designed using a titrant concentration (protein in the syringe generally between 100 and 400 μM) set 10 to 15 times the analyte concentration (compound in the cell generally between 10 and 40 μM) and using 13 injections at 25° C. A first small injection (generally 0.2 μL) was included in the titration protocol in order to remove air bubbles trapped in the syringe prior titration. Raw data were scaled after setting the zero to the titration saturation heat value. Integrated raw ITC data were fitted to a one site non-linear least squares fit model using the MicroCal Origin plugin as implemented in Origin 7 (Origin Lab). Finally, ΔG and TΔS values were calculated from the fitted ΔH and KA values using the equations ΔG=−R.T.inKA and ΔG=ΔH−TΔS.

Jurkat cells = assay: Cell Titer-Glo cell viability assay, Jurkat; assay type: cell-based; settings: Homo sapiens, 72 h, mean of three experiments, NA = IC50 > maximal concentration used
Protocol: The human leukemia cell line Jurkat (ATCC® TIB-152) and Molm14 was maintained in RPMI-1640 medium or MEMα, respectively and supplemented both with 10% FBS at 37° C. and 5% CO2.
In antiproliferative assays, compounds were assayed for their growth inhibiting activity towards the described cancer cell lines using the Cell Titer-Glo Luminescent Cell Viability Assay as described by the manufacturer (Promega Corporation). Briefly, 10.000 cells were plated onto 96 well-plates (white with clear bottom (3610, Corning Costar)) in 90 μL media per well immediately before assay. 10 μL of compounds were added at different concentrations (ranging from 50 μM to 6 nM) to each well and cell cultures were incubated 37° C. during 72 h. Vehicle (DMSO) was used as negative control, JQ1 (a pan-BET inhibitor) was used as positive control and all compounds were tested in constant percentage of DMSO (1%). After addition of 50 μL Cell Titer-GLO, shaking 2 minutes and incubating at room temperature 10 minutes, the Luminescence was measured using a Centro luminometer LB960 (Berthold). Dose-response curves were generated and effective dose 50 values (EC50) were calculated using non-linear regression analysis (Graph Pad Prism).

Brdt(BD1) = biological target: T2, Brdt(BD1) (Homo sapiens, UniProt Q58F21); assay: HTRF BET selectivity profile, Brdt(BD1); assay type: binding
T2 construct: GST tagged bromodomain proteins were purchased from BPS Bioscience; purchased BPS Bioscience
Protocol: (§4) HTRF assays were performed in white 384 Well Small Volume™ HiBase Polystyrene Microplates (Greiner) with a total working volume of 20 μL. Compounds were dispensed, with 100 nL per well (0.5% final DMSO), from a concentration stock of 10 mM in 100% DMSO and with serial DMSO dilutions, using an Echo® 550 robot from the Access Labcyte platform (Labcyte) and based on the transfer of liquid by acoustic wave. Then, 19.5 μL of buffer is added, using a Multidrop Combi (Thermo Fisher Scientific). Finally, for each assay, 200 nL of master mix (protein+donor+acceptor) and 200 nL of peptide Is added in the assay wells according to the final concentration and buffer described in Table 3, using the Echo® 550 robot (Labcyte). The IC50 measurements were performed in triplicates (Table 2 and 3). All HTRF reagents (donor and acceptor) were purchased from CisBio Bioassays and reconstituted according to the supplier protocols. The peptide was purchased from Genic Bio Synthetic. The BRD4(1) protein was produced and purified in the laboratory. HTRF signals were measured, after a final incubation (3 h or 6 h or overnight at room temperature or 4° C., according to the bromodomain), using a PHERAstar FS (BMG Labtech) with an excitation filter at 337 nm and fluorescence wavelength measurement at 620 and 665 nm, an integration delay of 60 μs and an integration time of 500 μs. Results were analyzed with a two-wavelengths signal ratio: [intensity (665 nm)/intensity (620 nm)]*104.
as §2, §3

BRD4(BD1) [2] = biological target: T1, BRD4(BD1); assay: HTRF assay, BRD4(BD1)/histone peptide interaction; assay type: binding; design: made in house; settings: for IC50: HTRF; for Ratio 4-1 vs 4-2: selectivity Brd4(BD1) vs Brd4(BD2), HTRF IC50
Protocol: as §1, §2, §3

Brd2(BD1) = biological target: T3, Brd2(BD1) (Homo sapiens, UniProt P25440); assay: HTRF BET selectivity profile, Brd2(BD1); assay type: binding; settings: for Ratio 2-1 vs 2-2: selectivity Brd2(BD1) vs Brd2(BD2), HTRF IC50
T3 construct: GST tagged bromodomain proteins were purchased from BPS Bioscience; purchased BPS Bioscience
Protocol: as §1, §2, §3

Brd2(BD2) = biological target: T4, Brd2(BD2) (Homo sapiens, UniProt P25440); assay: HTRF BET selectivity profile, Brd2(BD2); assay type: binding
T4 construct: GST tagged bromodomain proteins were purchased from BPS Bioscience; purchased BPS Bioscience
Protocol: as §1, §2, §3

Brd4(BD2) = biological target: T5, Brd4(BD2) (Homo sapiens, UniProt O60885); assay: HTRF BET selectivity profile, Brd4(BD2); assay type: binding
T5 construct: GST tagged bromodomain proteins were purchased from BPS Bioscience; purchased BPS Bioscience
Protocol: as §4, §2, §3

Brd3(BD2) = biological target: T6, Brd3(BD2) (Homo sapiens, UniProt Q15059); assay: HTRF BET selectivity profile, Brd3(BD2); assay type: binding
T6 construct: GST tagged bromodomain proteins were purchased from BPS Bioscience; purchased BPS Bioscience
Protocol: as §4, §2, §3

[3] = mean of three experiments, NA = IC50 > 50 μM, read-out: Brd4(8D1) IC50
[4] = triplicates, NA = IC50 > maximal concentration of compound used

Brd3(BD1), sequence (Q15059 34-140 limits assumed): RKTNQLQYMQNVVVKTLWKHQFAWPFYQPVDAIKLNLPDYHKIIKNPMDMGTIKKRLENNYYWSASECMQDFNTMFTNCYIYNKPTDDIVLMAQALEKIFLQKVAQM
T6 sequence (Q15059 306-415 limits assumed): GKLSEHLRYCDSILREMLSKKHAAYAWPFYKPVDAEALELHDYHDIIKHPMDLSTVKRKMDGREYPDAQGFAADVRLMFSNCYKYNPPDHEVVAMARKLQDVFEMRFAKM
T3 sequence (P25440 74-180 limits assumed): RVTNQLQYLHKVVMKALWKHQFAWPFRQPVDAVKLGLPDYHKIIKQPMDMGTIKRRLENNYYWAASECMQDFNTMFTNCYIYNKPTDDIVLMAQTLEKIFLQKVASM
T4 sequence (P25440 344-453 limits assumed): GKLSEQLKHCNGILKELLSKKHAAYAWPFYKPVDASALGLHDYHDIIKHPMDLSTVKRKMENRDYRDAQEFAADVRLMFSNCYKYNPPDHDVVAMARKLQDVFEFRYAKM

Structure (SMILES) | IC50 (Brd3(BD1)) [µM] | Ratio 3-1 vs 3-2 (Brd3(BD1)) | Kd (BRD4(BD1) [1]) [µM] | IC50 (Brdt(BD1)) [µM] | IC50 (BRD4(BD1) [2]; [3]) [µM] | IC50 (BRD4(BD1) [2]; [4]) | Ratio 4-1 vs 4-2 (BRD4(BD1) [2]) | IC50 (Brd2(BD1); read-out: Brd2(BD1) IC50) [µM] | Ratio 2-1 vs 2-2 (Brd2(BD1)) | IC50 (Brd2(BD2); read-out: Brd2(BD2) IC50) [µM] | IC50 (Brd4(BD2)) [µM] | IC50 (Brd3(BD2)) [µM] | IC50 (Brd2(BD2)) [µM] | IC50 (Brd2(BD1)) [µM] | IC50 (Jurkat cells) [µM]
O=C1CCCc2cc(S(=O)(=O)NCC3CCC(C(=O)NCCc4cccs4)CC3)ccc2N1 (single isomer, unassigned) [Compound 5b, 4-((2-oxo-2,3,4,5-tetrahydro-1H-benzo[b]azepine-7-sulfonamido)methyl)-N-(2-(thiophen-2-yl)ethyl)cyclohexanecarboxamide] | 2.38 | >21 | 2.2 | 14.6 | 3.83 | 3.8 µM | >13 | 6.35 | >8 |  |  |  |  |  | 9.3
O=C1CCCc2cc(S(=O)(=O)NCC3CCC(C(=O)NCCc4cccs4)CC3)ccc2N1 (single isomer, unassigned) [Compound 5c] |  |  | 2.8 |  |  | 7 µM |  |  |  |  |  |  |  |  | 
O=C1CCCc2cc(S(=O)(=O)C3CCC(C(=O)NCCc4ccccn4)CC3)ccc2N1 (stereo not drawn) [Compound 7a] | 22.2 | 2 | 3.5 | 9.16 | 9.55 | 9.6 µM | 2 | 16.1 | 0.4 | 7.11 | 20.8 | 47.2 |  |  | 
O=C1CCCc2cc(S(=O)(=O)NCC3CCC(C(=O)NCCc4ccccn4)CC3)ccc2N1 (stereo not drawn) [Compound 7b] |  |  | 8.8 |  |  | 19 µM |  |  |  |  |  |  |  |  | 
Cc1noc(C)c1CCNC(=O)C1CCC(CNS(=O)(=O)c2ccc3c(c2)CCCC(=O)N3)CC1 (stereo not drawn) [Compound 9a] | 5.05 | >10 | 3.4 | 9.17 | 15.7 | 16 µM | >3 | 10.3 | 3 | 33.9 |  |  |  |  | 
CCn1c(CSc2nc3nc(C)cc(C)n3n2)nc2c1c(=O)[nH]c(=O)n2Cc1ccc(CNS(=O)(=O)c2ccc3c(c2)CCCC(=O)N3)cc1 [Compound 32b] | 9.6 | 0.8 |  | 9.54 | 0.984 | 0.964 µM and 2.7 µM | 29 |  | 0.9 |  | 28 | 7.27 | 3.94 | 4.37 | 
CCn1cnc2c1c(=O)[nH]c(=O)n2Cc1ccc(CNS(=O)(=O)c2ccc(OC3CCOCC3)cc2)cc1 [Compound 43b] | 0.13 | 22 | 0.11 | 1.1 | 0.096 | 0.096 µM | 34 | 0.26 | 9 | 2.4 | 3.3 | 2.9 |  |  | 

Second part, led by results:

IC50 (Brd3(BD1)) [µM] | Ratio 3-1 vs 3-2 (Brd3(BD1)) | Kd (BRD4(BD1) [1]) [µM] | IC50 (Brdt(BD1)) [µM] | IC50 (BRD4(BD1) [2]; [3]) [µM] | IC50 (BRD4(BD1) [2]; [4]) | Ratio 4-1 vs 4-2 (BRD4(BD1) [2]) | IC50 (Brd2(BD1); read-out: Brd2(BD1) IC50) [µM] | Ratio 2-1 vs 2-2 (Brd2(BD1)) | IC50 (Brd2(BD2); read-out: Brd2(BD2) IC50) [µM] | IC50 (Brd4(BD2)) [µM] | IC50 (Brd3(BD2)) [µM] | IC50 (Brd2(BD2)) [µM] | IC50 (Brd2(BD1)) [µM] | Structure (SMILES) | IC50 (Jurkat cells) [µM]
 |  | 2.2 |  |  | 7.8 µM |  |  |  |  |  |  |  |  | Cc1noc(C)c1CNC(=O)c1ccc(CNS(=O)(=O)c2ccc3c(c2)CCCC(=O)N3)cc1 [Compound 15c] | 
8.62 | >6 | 5.8 | 12.5 | 10.9 | 11 µM | >5 | 8.7 | >6 |  |  |  |  |  | Cc1noc(C)c1CCNC(=O)c1ccc(CNS(=O)(=O)c2ccc3c(c2)CCCC(=O)N3)cc1 [Compound 16a] | 
0.94 | 3 |  | 2.15 | 0.766 | 0.766 µM | 11 | 3.49 | 2 | 5.58 | 8.31 | 3.03 |  |  | CCn1cnc2c1c(=O)[nH]c(=O)n2Cc1ccc(CNS(=O)(=O)c2ccc3c(c2)CCC(=O)N3)cc1 [Compound 27b] | 
5.71 | 0.4 |  | 3.36 | 3.46 | 3.5 µM | 1 | 4.35 | 0.7 | 3.08 | 4.21 | 2.13 |  |  | CCn1cnc2c1c(=O)[nH]c(=O)n2Cc1ccc(CNS(=O)(=O)c2ccc3c(c2)CCCC(=O)N3)c2ccccc12 [Compound 31c] | 
 |  | 20.5 |  |  | 0.371 µM |  |  |  |  |  |  |  |  | CCn1cnc2c1c(=O)[nH]c(=O)n2Cc1ccc(CNC(=O)c2ccc(Cn3cccc3)cc2)cc1 [Compound 33a] | 
0.258 | 10 |  | 0.474 | 0.202 | 0.202 µM | 22 | 0.367 | >6 | 2.26 | 4.39 | 2.44 |  |  | CCn1cnc2c1c(=O)[nH]c(=O)n2Cc1ccc(CNS(=O)(=O)c2ccc(OC3CCCCC3)cc2)cc1 [Compound 43a] | 
0.161 | 10 | 0.06 | 0.432 | 0.087 | 0.087 µM | 31 | 0.321 | 3 | 1.07 | 2.67 | 1.64 |  |  | CCn1cnc2c1c(=O)[nH]c(=O)n2Cc1ccc(CNS(=O)(=O)c2ccc(N3CCOCC3)cc2)cc1 [Compound 45a] | 
